In article PMC10142904, “Identification of Novel Cyclooxygenase-1 Selective Inhibitors of Thiadiazole-Based Scaffold as Potent Anti-Inflammatory Agents with Safety Gastric and Cytotoxic Profile” (Molecules, 2023):
“And” between values parts separate entries of the source, which are not always exact repeats. Identical values can stand only once. Like-named read-outs stand apart in the source and are kept apart here.

How the values were obtained:
[1] = test system: carrageenan-induced mouse paw edema; assay: Carrageenan-induced mouse paw edema; type: in vivo; conditions: i.p., 0.028 mmol/kg, paw weight after 3.5 h; for inhibition in vivo at 28 µmol/kg: Mus musculus, ip, 3.5 h
Protocol: All tested compounds were administrated through i.p. with a molar concentration of 0.028 mmol/kg.
The animals were weighed and then randomly divided into control, standard and test groups with each group including 10 mice. […] Edema was induced by injecting 0.1 mL of 1% aqueous solution of carrageenan subcutaneously to the sub-plantar region of the right hind paw, utilizing the left paw as control. The assessed derivatives, in suspended water/Tween-80, were injected i.p. […] After 3.5 h, the hind paws were excised and were weighed separately. The edema paws were estimated as paw weight increase.

[2] = cited from earlier work
soybean LOX = test system: T1, soybean LOX; assay: LOX activity inhibition; type: biochemical
T1 construct: purchased Sigma (St. Louis, MO, USA)
Text: κ-Carrageenan and lipoxygenase type I-B from soybean were obtained from Sigma (St. Louis, MO, USA). COX inhibition was studied utilizing the kit of “COX Inhibitor Screening Assay” (Cayman Chemical Co., Ann Arbor, MI, USA). In vivo tests, male and female (23–30 g) mice R”’ were stored in the Centre of the School of Veterinary Medicine (EL54-BIO42), (Aristotle University of Thessaloniki, Thessaloniki, Greek), licensed by the state official veterinary authorities (presidential degree 56/2013, in standardization with the European Directive 2010/63/EEC). The experimental protocols were approved by the Committee of Animal Ethics of the Prefecture of Central Macedonia (no. 270079/2500).
The reaction mixture contained the final concentration (300 µΜ) of the test derivatives, dissolved in absolute ethanol (10–300 µM), or the solvent (control), soybean LOX, dissolved in 0.9% NaCl solution (250 u/mL) and sodium linoleate (100 µM), in Tris–HCl buffer, pH 9.0. The reaction was monitored for 7 min at a temperature of 28 °C, noting the absorbance (234 nm) of a conjugated diene structure, following the formation of 13-hydroperoxy-linoleic acid. The performance of the assay was validated utilizing NDGA as a standard. For the evaluation of the inhibition type, the above experiments were repeated, utilizing sodium linoleate (1 mM), which is greater than the saturating substrate concentration.

ovine COX-1 = target: T2, ovine COX-1 (Ovis aries, UniProt P05979); assay: COX-1 inhibition (Cayman COX Inhibitor Screening Assay); type: biochemical; conditions: for IC50: read-out: COX-1 Inhibition, IC50 (μΜ)
T2 construct: purchased Cayman Chemical Co., Ann Arbor, MI, USA
T2 sequence (P05979 25-600): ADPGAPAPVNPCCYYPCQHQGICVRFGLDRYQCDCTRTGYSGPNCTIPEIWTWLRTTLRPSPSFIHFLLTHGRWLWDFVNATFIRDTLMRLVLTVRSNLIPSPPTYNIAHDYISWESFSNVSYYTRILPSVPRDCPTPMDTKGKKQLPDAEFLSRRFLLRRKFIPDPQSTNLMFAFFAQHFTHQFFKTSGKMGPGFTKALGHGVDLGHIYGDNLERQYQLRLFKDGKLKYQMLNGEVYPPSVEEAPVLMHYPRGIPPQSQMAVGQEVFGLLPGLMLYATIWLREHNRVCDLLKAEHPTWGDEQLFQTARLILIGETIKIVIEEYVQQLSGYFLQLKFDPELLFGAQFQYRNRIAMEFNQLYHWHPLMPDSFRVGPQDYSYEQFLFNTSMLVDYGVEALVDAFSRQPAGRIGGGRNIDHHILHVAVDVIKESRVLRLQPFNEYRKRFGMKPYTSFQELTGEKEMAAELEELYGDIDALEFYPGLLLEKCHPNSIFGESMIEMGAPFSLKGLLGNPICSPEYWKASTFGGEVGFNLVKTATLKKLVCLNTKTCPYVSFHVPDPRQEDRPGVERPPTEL
Protocol: (§1) κ-Carrageenan and lipoxygenase type I-B from soybean were obtained from Sigma (St. Louis, MO, USA). COX inhibition was studied utilizing the kit of “COX Inhibitor Screening Assay” (Cayman Chemical Co., Ann Arbor, MI, USA).
(§2) The action of the tested derivatives on COX-1 and COX-2 inhibition was analyzed utilizing a commercial kit furnished by Cayman (Cayman Chemical Co., Ann Arbor, MI, USA) and by applying the instructions of the manufacturer. The kit utilizes human recombinant COX-2 and ovine COX-1 enzymes. […] The assay analyzes PGF2a produced by SnCl2 reduction of COX-derived PGH2.

gastric mucosa = assay: Ulcerogenic activity (gastric lesions after oral dosing); type: in vivo; conditions: mice, oral 0.028 mmol/kg, 3 successive days, N = 5
Protocol: Gastric toxicity was conducted through oral administration of 0.028 mmol/kg of the tested derivatives on mice, and the extent of lesions of the gastric mucosa was measured. […] This study clearly indicated the superiority of our compounds over indomethacin concerning ulcerogenic liability.
The ulcerogenicity effect of compounds was assessed on male mice by following the reported protocol. Male mice weighing 22–25 g were separated into six groups (five animals in each group). […] The placebo control group was administrated saline with few drops of Tween-80. The animals were sacrificed 4 h after the last dose, and the stomachs were inspected for stomach lesions. The scoring of ulcerogenicity was expressed in terms of: average number of ulcers per stomach, percentage incidence of ulcers and percent incidence of ulcer divided by 10. The ulcer index was calculated using the sum of the three above values.

MRC-5 cells = assay: Cytotoxicity / cell proliferation in MRC-5 cells; type: cell-based, human; conditions: MRC-5 cells, 0.1, 1 and 10 μM, 48 h
Protocol: The evaluation of cellular cytotoxicity of derivatives 3, 4, 10, 11 and 14 in normal human MRC-5 cells was accomplished at three different concentrations in cell culture, i.e., 0.1, 1 and 10 μM (Figure 7). No substantial effect on cell proliferation after 48 h of exposure was found in cultures, as the growth was ≥98% for all assessed agents by comparison with the control (untreated cells) (Figure 7).
The MRC-5 human cell line from lung fibroblast was stored and then utilized in our laboratory in a conventional manner (passage < 40). MRC-5 cells were cultured (using a humidified atmosphere enclosing 5% CO2 at 37 °C) in medium DMEM with 10% v/v FBS, 1% PS penicillin–streptomycin. The assessed derivatives were dissolved in dimethyl sulfoxide and stored at a temperature of 4 degrees centigrade. For cytotoxicity assessment, cells were seeded in 96-well culture plates at 5 × 10^4 cells/mL (initial density) and permitted to attach for at least 3 h before adding the compounds at increasing concentrations (0.1, 1 and 10 µM). […] To evaluate the cytotoxicity of each derivative, the cells were given an additional 48 h to grow before estimating their number in culture utilizing the Neubauer counting chamber (microscope observation). In every treated culture, cell growth was expressed and reported as the percentage of untreated growing cells. GraphPad Prism 6.0 program was utilized in order to accomplish statistical t-test analysis.
Figure 7 Cell proliferation assessment of MRC-5 cell lines subjected to different derivatives in cell culture. MRC-5 cell lines grown in culture were incubated separately with each of the derivatives at concentrations of 0.1, 1 and 10 μM for 48 h. The cell number was analyzed in cell cultures with microscopic techniques (Neubauer counting chamber), as reported in “Methods” and expressed as % of the proliferation of cultures involving control untreated cells. […] The diagram illustrated above and the t-test statistical analysis were performed utilizing the GraphPad Prism 6.0 program. No significant statistical difference between the control untreated culture cells with each tested derivative was attained.

human recombinant COX-2 = test system: T3, human recombinant COX-2; assay: COX-2 inhibition (Cayman COX Inhibitor Screening Assay); type: biochemical
T3 construct: purchased Cayman Chemical Co., Ann Arbor, MI, USA
Protocol: as §1, §2

Compound: O=C1N/C(=N\c2nnc(C34CC5CC(CC(C5)C3)C4)s2)S/C1=C\c1ccccc1[N+](=O)[O-] [Compound 8]
- inhibition in vivo at 28 µmol/kg [1]: 37 ± 1.4%

Compound: O=C1N/C(=N\c2nnc(C34CC5CC(CC(C5)C3)C4)s2)S/C1=C\c1cccc([N+](=O)[O-])c1 [Compound 9]
- inhibition in vivo at 28 µmol/kg [1]: 41.9 ± 1.8%

Compound: COc1ccc(-n2nc(C(F)(F)F)cc2-c2ccc(Cl)cc2)cc1 [SC-560]
- Gastric toxicity (in words) [2]: devoid of any gastric toxicity

Compound: O=C1N/C(=N\c2nnc(C34CC5CC(CC(C5)C3)C4)s2)S/C1=C\c1cccc(Cl)c1Cl [Compound 12]
- inhibition in vivo at 28 µmol/kg [1]: 34.5 ± 1.1%

Compound: COc1ccc(/C=C2\S/C(=N/c3nnc(C45CC6CC(CC(C6)C4)C5)s3)NC2=O)cc1 [Compound 6]
- inhibition in vivo at 28 µmol/kg [1]: 37 ± 1.6%

Compound: CN(C)c1ccc(/C=C2\S/C(=N/c3nnc(C45CC6CC(CC(C6)C4)C5)s3)NC2=O)cc1 [Compound 7]
- inhibition in vivo at 28 µmol/kg [1]: 43.6 ± 1.3%

Compound: O=C1NC(=Nc2nnc(C34CC5CC(CC(C5)C3)C4)s2)SC1=Cc1ccc(Br)cc1 [Compound 3]
- Enzymatic inhibition against LOX (in words) (soybean LOX): modest enzymatic inhibition
- LOX Inhibition (%) 100 μΜ (soybean LOX): 42.9 ± 1.9 %
- COX-1 Inhibition, Inhibition (%) 200 μΜ (ovine COX-1): 100%
- IC50 (ovine COX-1): 1080 nM and 1120 nM
- Number of Animals with Ulcer (gastric mucosa): nil
- inhibition in vivo at 28 µmol/kg [1]: 62%
- Edema Inhibition, (%) [1]: 62.0 ± 1.8 %
- Cell growth by comparison with the control (untreated cells) (MRC-5 cells): ≥ 98%
- COX-2 Inhibition, Inhibition (%) 200 μΜ (human recombinant COX-2): 0%

Compound: O=C1N/C(=N\c2nnc(C34CC5CC(CC(C5)C3)C4)s2)S/C1=C\c1c(F)cccc1F [Compound 11]
- inhibition in vivo at 28 µmol/kg [1]: 60%
- Cell growth by comparison with the control (untreated cells) (MRC-5 cells): ≥ 98%

Compound: O=C1N/C(=N\c2nnc(C34CC5CC(CC(C5)C3)C4)s2)S/C1=C\c1ccccc1 [Compound 1]
- inhibition in vivo at 28 µmol/kg [1]: 40.8 ± 1.9%

Compound: COc1ccc2cc([C@H](C)C(=O)O)ccc2c1 [Naproxen, reference compound]
- COX-2 Inhibition, Inhibition (%) 200 μΜ (human recombinant COX-2): 17.0 ± 2.3 %

Compound: COc1ccc(-c2nc(C(=O)N3CCN(C)CC3)sc2-c2ccc(OC)cc2)cc1 [FR122047]
- Gastric toxicity (in words) [2]: devoid of any gastric toxicity

Compound: O=C1N/C(=N\c2nnc(C34CC5CC(CC(C5)C3)C4)s2)S/C1=C\c1ccc(Cl)cc1Cl [Compound 13]
- inhibition in vivo at 28 µmol/kg [1]: 36 ± 1.8%

Compound: COc1ccc(-c2noc(CC(=O)O)c2-c2ccc(OC)cc2)cc1 [Mofezolac]
- Ulcer index ([2]; dose of 10 mg): 0.98

Compound: COc1ccc2c(c1)c(CC(=O)O)c(C)n2C1CCN(C)CC1 [N-methylpiperidinylindole]
- Gastric toxicity (in words) ([2]; in vivo): devoid of any gastric toxicity

Compound: COc1ccc(-c2nc(NCC(=O)O)sc2-c2ccc(OC)cc2)cc1 [diarylthiazole]
- Gastric damage (in words) [2]: low gastric damage

Compound: O=C1NC(=Nc2nnc(C34CC5CC(CC(C5)C3)C4)s2)SC1=Cc1cccc(F)c1F [Compound 10, 2-{[5-(Adamantan-1-yl)-1,3,4-thiadiazol-2-yl]-imino}-5-(2,3-difluorobenzylidene)-1,3-thiazolidin-4-one]
- inhibition in vivo at 28 µmol/kg [1]: 55.8%
- Edema Inhibition, (%) [1]: 55.8 ± 1.9 %
- Cell growth by comparison with the control (untreated cells) (MRC-5 cells): ≥ 98%

Compound: O=C1NC(=Nc2nnc(C34CC5CC(CC(C5)C3)C4)s2)SC1=Cc1ccc([N+](=O)[O-])cc1 [Compound 4]
- Enzymatic inhibition against LOX (in words) (soybean LOX): modest enzymatic inhibition
- LOX Inhibition (%) 100 μΜ (soybean LOX): 39.8 ± 181 %
- COX-1 Inhibition, Inhibition (%) 200 μΜ (ovine COX-1): 100%
- IC50 (ovine COX-1): 1120 nM and 1080 nM
- Number of Animals with Ulcer (gastric mucosa): nil
- inhibition in vivo at 28 µmol/kg [1]: 66.7%
- Edema Inhibition, (%) [1]: 66.7 ± 2.1 %
- Cell growth by comparison with the control (untreated cells) (MRC-5 cells): ≥ 98%
- COX-2 Inhibition, Inhibition (%) 200 μΜ (human recombinant COX-2): 0%

Compound: Cc1onc(-c2ccc(Cl)o2)c1-c1ccccc1 [Compound P6]
- Gastric toxicity (in words) [2]: devoid of any gastric toxicity

Compound: COc1ccc2c(c1)c(CC(=O)O)c(C)n2C(=O)c1ccc(Cl)cc1 [Indomethacin, reference compound]
- Number of Animals with Ulcer (gastric mucosa): 4/5
- Number of Animals with Ulcer (gastric mucosa; listed as indomethacin): four out of five

Compound: Cc1ccc(/C=C2\S/C(=N/c3nnc(C45CC6CC(CC(C6)C4)C5)s3)NC2=O)cc1 [Compound 5]
- inhibition in vivo at 28 µmol/kg [1]: 47.2 ± 1.2%

Compound: COc1cc(/C=C2\S/C(=N/c3nnc(C45CC6CC(CC(C6)C4)C5)s3)NC2=O)ccc1O [Compound 15]
- inhibition in vivo at 28 µmol/kg [1]: 21.4%
- Edema Inhibition, (%) [1]: 21.4 ± 2.1 %

Compound: Nc1ccc(NC(=O)c2ccc(C(F)(F)F)cc2)cc1 [TFAP]
- Gastric toxicity (in words) ([2]; in vivo): devoid of any gastric toxicity

Compound: O=C1N/C(=N\c2nnc(C34CC5CC(CC(C5)C3)C4)s2)S/C1=C\c1ccc(F)cc1 [Compound 2]
- inhibition in vivo at 28 µmol/kg [1]: 39.7 ± 1.6%

Compound: O=C1NC(=Nc2nnc(C34CC5CC(CC(C5)C3)C4)s2)SC1=Cc1c(Cl)cccc1Cl [Compound 14]
- Enzymatic inhibition against LOX (in words) (soybean LOX): modest enzymatic inhibition
- LOX Inhibition (%) 100 μΜ (soybean LOX): 34.5 ± 1.6 %
- COX-1 Inhibition, Inhibition (%) 200 μΜ (ovine COX-1): 100%
- IC50 (ovine COX-1): 9620 ± 500 nM
- Number of Animals with Ulcer (gastric mucosa): nil
- inhibition in vivo at 28 µmol/kg [1]: 60 ± 1.9%
- Cell growth by comparison with the control (untreated cells) (MRC-5 cells): ≥ 98%
- COX-2 Inhibition, Inhibition (%) 200 μΜ (human recombinant COX-2): 0%

Compound: CC(C)Cc1ccc([C@H](CF)C(=O)O)cc1 [(S)-F-ibuprofen]
- Gastric damage (in words) [2]: low gastric damage
